Data on five compounds can be found in patent publication US5827887A, “Biphenyl compounds” (Roussel Uclaf, priority 1995, dated 1998).

The experiment deals with T1, human prostate 5-α-reductase (PH6) (Homo sapiens, UniProt P31213).
T1 construct: Homogenates of human prostates were used, obtained by radical prostatectomies; from tissue; host or cells: human prostate (benign hyperplasia, radical prostatectomy), homogenate, 140,000 g pellet
T1 sequence (P31213 1-254): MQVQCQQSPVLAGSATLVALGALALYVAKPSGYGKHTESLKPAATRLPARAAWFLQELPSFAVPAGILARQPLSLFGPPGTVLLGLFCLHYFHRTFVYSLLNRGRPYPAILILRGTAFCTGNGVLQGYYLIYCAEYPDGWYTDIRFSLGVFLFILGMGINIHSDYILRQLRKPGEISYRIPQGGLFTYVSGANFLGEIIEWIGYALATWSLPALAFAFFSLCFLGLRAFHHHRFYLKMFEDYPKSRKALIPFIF
Nature of the experiment: 5-α-reductase activity in vitro, HPLC of 5-α reduced metabolites of tritiated testosterone, homogenates of human prostates (PH6). Particulars: human prostate homogenate; testosterone substrate; pH 5.5; 37° C., 30 minutes; read-out: IC50 of inhibition of the 5-α-reductase activity of the human prostate enzyme (PH6). The class given is biochemical. The protocol:
The test for measuring the 5-α-reductase activity took place in vitro by incubating the enzyme and its substrate (testosterone) and measuring by HPLC chromatography the quantity of 5-α reduced metabolites formed (dihydro-testosterone (DHT) and 5-α-androstane-diol). Homogenates of human prostates were used, obtained by radical prostatectomies due to benign hyperplasia of the prostate (BHP): PH6.
The prostate was collected as soon as it left the operating theater suite and was packed in aluminum foil placed in a container filled with dry ice. In the laboratory, if the homogenate was not prepared immediately, the prostate could be kept at -80° C. The prostate was shredded over ice into very small pieces, which were homogenized in a medium A (20 mM of potassium phosphate, pH 6.5; 0.32M of sucrose; 1 mM of dithiotreitol (DTT); 50 uM NADPH), in a polytron, then in a Potter glass flask. After centrifuging at 140,000 g for 60 minutes at 4° C., the pellets obtained were suspended in 10 to 20 ml of medium B ([…] of potassium phosphate, pH 6.5; 20% of glycerol; 1 mM of dithiothreitol). The medium was distributed in Nunc tubes kept at -80° C. Determination of the proteins was carried out on a small amount of homogenate for its future use in the test and it was therefore assured of having at least 10 mg of proteins/ml of homogenate.
Incubation was carried out at a pH of 5.5 at the rate of 1 ml of medium/tube in the presence of citrate (normal medium and pH of the prostate).
1) Preparation of the substrate (S) which was the mixture of "unlabelled" testosterone and "tritiated" testosterone with an isotopic dilution of 100 in a trisodium citrate buffer pH 5.0
a) 40 mM of trisodium citrate buffer: 11.76 g of 3 Na-citrate, 2H2 O (Merk ref. Art 6448) were weighed and dissolved in 1 liter of distilled water (Milli-Q) and the solution was adjusted to pH of 5.0.
b) mixture of "unlabelled" testosterone and "tritiated testosterone with an isotopic dilution of 100: To obtain a solution of testosterone of 1 mM, 2.88 mg of "unlabelled" testosterone were weighed and dissolved in 10 ml of ethanol. This solution was diluted to 0.99/1000, that is 9.9 μl in 10 ml of citrate buffer (=10^-6 M solution). 9 μl of ^3 H-testosterone (NET-370) were added to 10 ml of the preceding solution (=isotopic dilution of 100). The substrate (S) was ready.
2) Preparation of enzyme+DTT+NADPH mixture
a) Potassium phosphate buffer, 40 mM, pH 6.5:
5.44 g de KH2 PO4 (Riedel de Haen ref. 30407) was weighed and dissolved in 1 liter of distilled water (Milli-Q) and the solution was adjusted to a pH of 6.5.
3.1 mg of DTT were weighed and dissolved in 1 ml of phosphate buffer.
8.33 mg of NADPH were weighed and dissolved in 1 ml of phosphate buffer.
d) enzyme+DTT+NADPH mixture (E):
For one test, 0.5 mg of proteins of prostate homogenate, 50 μl of DTT and 50 μl of NADPH were mixed together at 4° C. and the mixture was made up to 500 μl with the phosphate buffer.
3) Incubation (5α-reduction)
One tube was prepared for each test and 500 μl of (S) and 10 μl of inhibitor at the desired concentration (or ethanol for the controls) are put in each tube. The tubes containing mixture (S) and the flask containing mixture (E) were pre-incubated in a water bath for 3 to 5 minutes.
To start the reaction, 500 μl of E were transferred rapidly into each tube containing S+the inhibitor and the mixture was incubated at 37° C. with gentle stirring for 30 minutes. […]

Molecules are shown by their SMILES.

In general, IC50 refers to the point on the concentration scale where inhibition reaches its midpoint. Turning to `CC(C)N(C(=O)COc1c(F)cc(-c2ccc(C(=O)O)cc2)cc1[N+](=O)[O-])C(C)C` [Example 4, 4'-[2-[bis-(isopropyl)-amino]-2-oxoethoxy]-3'-fluoro-5'-nitro-(1,1'-biphenyl)-4-carboxylic acid], the IC50 came out at 9.6 nM.

As to `O=C(COc1ccc(-c2ccc(C(=O)O)cc2)cc1)NC(c1ccccc1)(c1ccccc1)c1ccccc1` [Example 5, 4'-[2-oxo-2-([tribenzyl)-amino]-ethoxy]-(1,1'-biphenyl) -4-carboxylic acid], the IC50 came to 92 nM.

As to `O=C(COc1c(F)cc(-c2ccc(C(=O)O)cc2)cc1[N+](=O)[O-])NC(c1ccccc1)(c1ccccc1)c1ccccc1` [Example 6, 3'-fluoro-5'-nitro-4'-[2-oxo-2-[(tribenzyl)-amino]-ethoxy]-(1,1'-biphenyl)-4-carboxylic acid], the IC50 is 36 nM.

As for `CCc1cc(OCC(=O)N(C(C)C)C(C)C)ccc1-c1ccc(C(=O)O)cc1` [Example 11, 4'-(2-[bis-(isopropyl)-amino)-2-oxoethoxy]-2'-ethyl-(1,1'-biphenyl)-4-carboxylic acid], the IC50 stood at 77 nM.

On to `CCc1cc(-c2ccc(C(=O)O)cc2)ccc1OCC(=O)N(C(C)C)C(C)C` [Example 12, 4'-[2-[bis-(isopropyl)-amino)-2-oxoethoxy]-3'-ethyl-(1,1'-biphenyl)-4-carboxylic acid], for which the IC50 was determined as 2000 nM.
